Common to all, as to test: NCI tumour cell line growth inhibition, 48 h
Test [1] deals with NCI/ADR-RES.
Test [2] concerns ACHN.
Test [3] concerns PC-3.
The test system of test [4] is M14.
In test [5] the test system is SK-MEL-5.
The test system of test [6] is HT-29.
In test [7] the test system is HCC 2998.
Test [8] deals with MDA-N.
The subject of test [9] is HL-60.
Test [10] relates to CAKI-1.
The test system of test [11] is SNB-75.
Test [12] has as its system MCF7.
Test [13] deals with HOP-92.
Test [14] relates to SK-MEL-28.
Test [15] has as its system LOX IMVI.
Test [16] relates to SF-295.
Test [17] deals with UACC-62.
For test [18], the system named is SK-OV-3.
Test [19] has as its system NCI-H226.

Molecules are shown by their SMILES.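 All cell lines were grown in 96-well plates and treated with compound for 48 hours. GI50 = concentration required for 50% inhibition of growth.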 Activity calls are given as the source filed them. No stated cut-off is given here; in the data, active = GI50 up to about 1.1 µM and inactive = higher. A value given as a limit tells only on which side of the number the result lay.

The record followed here is ChEMBL document CHEMBL1201862, “PubChem BioAssay data set” (2004).

For `COc1cc(OC)cc(OCc2ccc3nc(-c4ccccc4)c(Cl)nc3c2)c1`, the GI50 was 25 µM (inactive) in test [1]; 17.7 µM (inactive) in test [2]; 37.6 µM (inactive) in test [3]; > 100 µM (inactive) in [4]; 14.5 µM (inactive) in [5]; 48.5 µM (inactive) in test [6]. Moreover, the GI50 in [7] was 32.7 µM (inactive); in test [8] it was 44.1 µM (inactive); in test [9], 54.6 µM (inactive); in test [10] it was 11.5 µM (inactive); in test [11], 15.8 µM (inactive); in [12], 58.6 µM (inactive). Moreover, the GI50 in [13] was 18.8 µM (inactive); in [14], > 100 µM (inactive); in test [15], 43.1 µM (inactive); in test [16], 22.5 µM (inactive); in test [17], 32.4 µM (inactive).
Regarding `O=C(Nc1ccccc1)c1cc2c(cc1Cl)Sc1nccn1S2(=O)=O`, the GI50 in test [1] is 41.8 µM (inactive); in test [2], 41.3 µM (inactive); in test [3] it was 20.1 µM (inactive); in test [4], 16 µM (inactive); in test [5], 12.9 µM (inactive); in test [6], 21.9 µM (inactive). Also, the GI50 is 18.5 µM (inactive) in test [7]; 23.5 µM (inactive) in [8]; 15.8 µM (inactive) in test [9]; 0.266 µM (active) in test [10]; 17.7 µM (inactive) in test [11]; 76.4 µM (inactive) in test [18]. In addition, the GI50 in [12] is 12.6 µM (inactive); in [13], 2.58 µM (inactive); in [14], 18 µM (inactive); in [15], 9.2 µM (inactive); in test [16], 41.5 µM (inactive); in test [17], 17.6 µM (inactive).
Consider `N#Cc1cc(C#N)c(Cl)nc1N`, for which the GI50 in test [1], in test [19], in test [2], in test [3], in test [5] and in test [6] was > 10 µM (inactive) throughout. Besides, the GI50 in [7] was > 10 µM (inactive); in [8], > 10 µM (inactive); in test [9], 3.48 µM (inactive); in test [11] it was > 10 µM (inactive); in [18], > 10 µM (inactive); in test [12], > 10 µM (inactive). Also, the GI50 in test [13], in test [14], in test [15], in [16] and in test [17] was > 10 µM (inactive) throughout.
Consider `CC(=O)n1[nH]c(=O)n(-c2ccccc2)c1=O`, for which the GI50 in [1], in [19], in [2], in test [3], in [4] and in test [5] was > 100 µM (inactive) each time. Besides, the GI50 in [6], in test [7], in test [8], in test [9], in test [10] and in [18] was > 100 µM (inactive) in each case. The GI50 in test [12], in test [14], in test [15], in test [16] and in test [17] was > 100 µM (inactive) in each case.
Regarding `Cc1cc2ccccc2n2c1nc1ccccc12`, the GI50 in [1], in [19], in test [2], in test [3], in test [4] and in [5] was > 100 µM (inactive) in each case. Further, the GI50 in [6], in test [7], in [8], in test [9], in test [11] and in test [18] was > 100 µM (inactive) in each case. In addition, the GI50 in test [12], in [13], in test [14], in test [16] and in [17] was > 100 µM (inactive) each time.
Take `CC(C)(C)c1cc2c(O)c(c1)C(c1ccccc1)c1cc(C(C)(C)C)cc(c1O)Cc1cc(C(C)(C)C)cc(c1O)C(c1ccccc1)c1cc(C(C)(C)C)cc(c1O)C2` (stereo not given): the GI50 in test [1], in [2], in test [3], in test [4], in [5] and in test [6] was > 100 µM (inactive) throughout. In addition, the GI50 in [7] was > 100 µM (inactive); in [8] it was > 100 µM (inactive); in [9], 28.7 µM (inactive); in test [10] it was > 100 µM (inactive); in [12] it was > 100 µM (inactive); in [13] it was > 100 µM (inactive). Further, the GI50 in [14], in test [15], in [16] and in test [17] was > 100 µM (inactive) throughout.
Take `COc1cc(COC(=O)N2CSCC2C(=O)O)c([N+](=O)[O-])cc1OC` (stereo not given): the GI50 in test [1], in test [19], in [2], in [3], in test [4] and in test [5] was > 100 µM (inactive) each time. For the same molecule, the GI50 in [6], in test [7], in [8], in [9], in test [11] and in [18] was > 100 µM (inactive) in each case. For the same molecule, the GI50 in test [12], in [13], in test [16] and in test [17] was > 100 µM (inactive) in each case.
As to `O=C(CCCc1cccc2[nH]c3c(c12)CN(Cc1ccccc1)CC3)c1ccc(F)cc1`, the GI50 in [1] is > 100 µM (inactive); in test [19] it was > 95.3 µM (inactive); in [2], > 100 µM (inactive); in test [3], > 43.6 µM (inactive); in [4] it was 42 µM (inactive); in [5], 18.2 µM (inactive). Further, the GI50 in [6] is 4.39 µM (inactive); in test [7], 11.9 µM (inactive); in test [8], 97.5 µM (inactive); in test [10] it was > 100 µM (inactive); in [11], > 62.7 µM (inactive); in test [18], > 47.1 µM (inactive). The GI50 was > 100 µM (inactive) in test [12]; > 100 µM (inactive) in test [13]; > 100 µM (inactive) in [14]; 7.85 µM (inactive) in [15]; > 100 µM (inactive) in test [16]; 49.1 µM (inactive) in test [17].
Turning to `Cc1cc2nc(N3C(=O)/C(=C/c4cccc([N+](=O)[O-])c4)N=C3c3ccccc3)sc2cc1C`, the GI50 in test [1] was 28.4 µM (inactive); in test [2], 37 µM (inactive); in [3] it was 17.4 µM (inactive); in test [4] it was 37.2 µM (inactive); in test [5], 30.1 µM (inactive); in test [6] it was 27.5 µM (inactive). The GI50 in test [7] was 21.4 µM (inactive); in test [8], 12.5 µM (inactive); in test [9], 19.8 µM (inactive); in test [10], 52 µM (inactive); in test [11] it was 6.84 µM (inactive); in [18], 67.8 µM (inactive). For the same molecule, the GI50 was 16.1 µM (inactive) in test [12]; 6.7 µM (inactive) in [13]; 57.8 µM (inactive) in test [14]; 19.2 µM (inactive) in [15]; 32.4 µM (inactive) in test [16]; 33.5 µM (inactive) in test [17].
For `Nc1nc(N)c2ncn(Cc3ccccc3)c2n1`, the GI50 in [1], in [19], in [2], in test [3], in test [4] and in [5] was > 100 µM (inactive) each time. The GI50 in [6] was > 100 µM (inactive); in test [7], > 100 µM (inactive); in [8] it was > 100 µM (inactive); in test [10], > 100 µM (inactive); in [11], 0.0295 µM (active); in test [18], > 100 µM (inactive). The GI50 in [12], in test [13], in test [14], in test [16] and in [17] was > 100 µM (inactive) throughout.
For `CC(C)(C)OC(=O)N1[C@@H]2Cc3ccc(N)cc3[C@@]1(C)c1ccccc12`, the GI50 in [1] was 22.4 µM (inactive); in test [2], 36.8 µM (inactive); in test [3], 29.9 µM (inactive); in [4], 24 µM (inactive); in test [5] it was 0.9 µM (active); in [6] it was 21.6 µM (inactive). For the same molecule, the GI50 in test [7] was 21.3 µM (inactive); in [8], 21.2 µM (inactive); in [9] it was 20.1 µM (inactive); in [10] it was 45.2 µM (inactive); in test [18] it was 34 µM (inactive); in test [12], 34.1 µM (inactive). The GI50 in test [13] is 23.9 µM (inactive); in test [15], 19.6 µM (inactive); in [16], 28.1 µM (inactive); in test [17], 20.6 µM (inactive).
On to `Cc1ccc(S(=O)(=O)n2cc(C#N)c(C#N)c2)cc1`, for which the GI50 was 31.8 µM (inactive) in test [1]; 19.3 µM (inactive) in test [2]; 28.9 µM (inactive) in test [3]; 22.4 µM (inactive) in test [4]; 21.3 µM (inactive) in test [5]; 23.9 µM (inactive) in test [6]. The GI50 is 24.3 µM (inactive) in test [7]; 27.1 µM (inactive) in [8]; 26.5 µM (inactive) in test [9]; 26.1 µM (inactive) in [10]; 32.7 µM (inactive) in [11]; 19.1 µM (inactive) in test [18]. Besides, the GI50 is 22.3 µM (inactive) in [12]; 31 µM (inactive) in [13]; 15.5 µM (inactive) in [14]; 22.8 µM (inactive) in [15]; 23 µM (inactive) in test [16]; 17.3 µM (inactive) in [17].
